Measured values from patent publication US20250025439A1, “DERIVATIVES OF NIFUROXAZIDE FOR USE IN THE TREATMENT OF MITOCHONDRIAL DISORDERS AND NEURODEGENERATIVE DISEASES” (priority 2021, published 2025).

What was measured:
Experiment in all cases: Affinity chromatography with NFX-beads and mass spectrometry
Format in all cases: binding
Conditions in all cases: spectral counts, NFX coupled beads vs beads alone, human fibroblast extracts
[1] = molecular target: T1, Calcium/calmodulin-dependent protein kinase type II subunit delta (CAMK2D) (Homo sapiens, UniProt Q13557)
T1 construct: Protein extracts from human fibroblasts were incubated with magnetic beads; endogenous in cells; host or cells: human fibroblast lysate
T1 sequence (Q13557 whole entry): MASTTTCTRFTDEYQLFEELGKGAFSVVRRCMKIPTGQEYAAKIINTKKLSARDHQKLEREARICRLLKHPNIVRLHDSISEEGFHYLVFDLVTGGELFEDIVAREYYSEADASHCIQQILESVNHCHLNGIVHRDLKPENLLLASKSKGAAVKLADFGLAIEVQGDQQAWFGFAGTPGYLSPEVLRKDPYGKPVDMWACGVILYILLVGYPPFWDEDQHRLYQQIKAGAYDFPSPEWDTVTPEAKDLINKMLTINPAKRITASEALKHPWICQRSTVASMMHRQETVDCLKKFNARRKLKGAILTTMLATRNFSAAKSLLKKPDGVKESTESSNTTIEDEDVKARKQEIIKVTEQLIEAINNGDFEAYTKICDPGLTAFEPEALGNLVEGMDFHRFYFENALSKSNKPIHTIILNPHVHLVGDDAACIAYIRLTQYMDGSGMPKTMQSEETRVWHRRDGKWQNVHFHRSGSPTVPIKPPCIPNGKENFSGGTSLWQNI
Experimental: (§1) Fibroblasts were trypsinized and washed with PBS 1× then incubated in lysis buffer on ice during 20 minutes (Lysis buffer: Tris-HCl pH 7.5 50 mM, EDTA 2 mM, Triton X-100 0.1% supplemented with anti-protease and anti-phosphatase (Complete-Mini™—Roche). After centrifugation 15 minutes, 13 000 rpm at 4° C., supernatant was conserved and the protein concentration was determined using the Pierce BCA assay kit (Thermo Fisher Scientific).
(§2) 10 μL of magnetic beads and NFX-beads were washed three times in Bead buffer before to be resuspended 100 μL of Bead buffer (Bead buffer: Tris-HCl pH 7.5 50 mM, NaCl 150 mM, Triton X-100 0.1%, supplemented with anti-protease and anti-phosphatase (Complete-Mini™—Roche)) thanks to a magnetic rack (DynaMag-2 Ref 12321D Life Technologies). 800 μg of proteins were mixed with 100 μL of diluted beads and the final volume was set to 800 μL with Bead buffer. The proteins and the beads were incubated 30 minutes with rotation in a cold room. Using a magnetic rack, the beads were separated from the protein extract and washed three time with Bead buffer before to be resuspended in 75 μL of Laemmli2X. Laemmli with beads was put 5 minutes at 95° C. to eluate the proteins and the beads were discarded using a magnetic rack. 35 μL of the eluted proteins were subjected to SDS-PAGE and silver coloration (ProteoSilver™ Silver Stain Kit—Sigma Aldrich). Bands of interest were extracted from the gel and subjected to mass spectrometry.
(§3) Mass spectrometric identification and quantification of the pulled down proteins were performed as previously described (Shrivastava et al., EMBO, 2019, 38:e99871). The raw data were cleaned using the following pathway. First, only the proteins found to interact with the NFX coupled beads in the three replicates were kept for further analysis. […] The final proteins were then classified based on the fold chance and the p-value.
(§4) Identification of the NFX intracellular targets is a crucial step in understanding its mechanisms of action and to be able to improve its efficiency on a rational basis. To purify NFX-binding proteins, affinity chromatography purification was performed using magnetic beads. Protein extracts from human fibroblasts were incubated with magnetic beads alone or to which NFX has been covalently coupled (Scheme 1). Eluted fractions were subjected to SDS-PAGE electrophoresis and silver staining (FIG. 9A). The pattern was clearly different between eluted proteins from NFX-beads compared to those eluted form beads alone with 13 bands either appeared or were of a higher intensity with the NFX-beads (FIG. 9B). Excised bands were subjected to proteolytic digestion and mass spectrometry.

[2] = molecular target: T2, Kinesin-1 heavy chain (KIF5B) (Homo sapiens, UniProt P33176)
T2 construct: Protein extracts from human fibroblasts were incubated with magnetic beads; endogenous in cells; host or cells: human fibroblast lysate
T2 sequence (P33176 1-963): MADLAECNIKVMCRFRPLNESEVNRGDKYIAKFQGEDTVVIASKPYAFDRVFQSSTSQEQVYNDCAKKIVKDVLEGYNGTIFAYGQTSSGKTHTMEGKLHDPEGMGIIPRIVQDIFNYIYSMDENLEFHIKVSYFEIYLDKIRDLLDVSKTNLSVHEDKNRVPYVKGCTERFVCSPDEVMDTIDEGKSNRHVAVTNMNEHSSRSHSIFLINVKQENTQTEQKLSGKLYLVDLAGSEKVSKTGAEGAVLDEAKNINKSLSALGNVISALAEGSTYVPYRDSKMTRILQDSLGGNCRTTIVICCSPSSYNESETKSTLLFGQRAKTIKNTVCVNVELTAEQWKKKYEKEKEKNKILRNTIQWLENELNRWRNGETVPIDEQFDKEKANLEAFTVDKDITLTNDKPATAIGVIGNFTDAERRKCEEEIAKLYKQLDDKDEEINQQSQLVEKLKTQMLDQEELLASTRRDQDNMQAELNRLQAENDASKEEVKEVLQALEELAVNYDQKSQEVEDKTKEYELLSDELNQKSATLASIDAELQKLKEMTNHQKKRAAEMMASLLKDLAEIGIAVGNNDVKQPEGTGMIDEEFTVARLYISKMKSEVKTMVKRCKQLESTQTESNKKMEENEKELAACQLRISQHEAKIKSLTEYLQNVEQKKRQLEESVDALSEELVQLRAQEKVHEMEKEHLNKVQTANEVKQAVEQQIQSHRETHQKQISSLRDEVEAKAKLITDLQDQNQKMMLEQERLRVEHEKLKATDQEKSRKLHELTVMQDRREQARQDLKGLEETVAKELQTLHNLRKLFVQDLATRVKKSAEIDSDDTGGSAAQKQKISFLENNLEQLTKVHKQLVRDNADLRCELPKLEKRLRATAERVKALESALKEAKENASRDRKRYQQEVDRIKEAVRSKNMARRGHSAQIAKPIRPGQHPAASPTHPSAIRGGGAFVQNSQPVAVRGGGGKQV
Experimental: as §1, §2, §3, §4

[3] = molecular target: T3, ARF GTPase-activating protein GIT2 (Homo sapiens, UniProt Q14161)
T3 construct: Protein extracts from human fibroblasts were incubated with magnetic beads; endogenous in cells; host or cells: human fibroblast lysate
T3 sequence (Q14161 1-759): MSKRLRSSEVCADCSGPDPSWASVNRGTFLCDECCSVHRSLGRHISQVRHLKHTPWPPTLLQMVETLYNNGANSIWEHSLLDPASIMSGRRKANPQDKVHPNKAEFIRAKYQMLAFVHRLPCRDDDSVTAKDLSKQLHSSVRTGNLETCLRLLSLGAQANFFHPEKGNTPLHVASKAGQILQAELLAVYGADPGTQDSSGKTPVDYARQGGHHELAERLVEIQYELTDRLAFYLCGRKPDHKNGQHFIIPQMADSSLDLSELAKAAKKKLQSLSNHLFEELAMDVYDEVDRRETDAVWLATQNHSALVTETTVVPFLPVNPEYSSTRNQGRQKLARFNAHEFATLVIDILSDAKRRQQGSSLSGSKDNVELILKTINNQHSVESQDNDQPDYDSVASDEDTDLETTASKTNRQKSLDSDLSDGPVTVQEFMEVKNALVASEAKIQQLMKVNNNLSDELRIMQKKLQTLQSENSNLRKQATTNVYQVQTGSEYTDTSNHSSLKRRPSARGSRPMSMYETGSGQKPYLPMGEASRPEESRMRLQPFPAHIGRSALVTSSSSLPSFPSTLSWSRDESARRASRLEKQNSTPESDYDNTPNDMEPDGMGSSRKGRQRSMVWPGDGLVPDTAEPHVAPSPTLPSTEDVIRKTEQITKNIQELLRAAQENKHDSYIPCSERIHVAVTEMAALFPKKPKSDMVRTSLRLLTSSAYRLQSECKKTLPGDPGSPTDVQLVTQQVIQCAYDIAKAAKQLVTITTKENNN
Experimental: as §1, §2, §3, §4

Fold change [1]: 803.33
Fold change [2]: 121.67
Fold change [3]: 433.33
Structure (SMILES): O=C(N/N=C/c1ccc([N+](=O)[O-])o1)c1ccc(O)cc1 [NFX, (E)-4-hydroxy-N′-((5-nitrofuran-2-yl)methylene)benzohydrazide]
